We go through 17 compounds from US5354862A, “Preparation and the use of halopropargylated cyclic quaternary ammonium compounds as antimicrobial agents” (Rohm and Haas Company, priority 1993, dated 1994).

Common to all, as to assay: Broth two-fold serial dilution MIC test
One experiment relates to Pseudomonas aeruginosa. Format: cell-based, Pseudomonas aeruginosa (ATCC 15442). The note with it: Table 2, Psae. In short, it runs like this: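 Broth two-fold serial dilution MIC (500 to 0.25 ppm) was run against Pseudomonas aeruginosa, with compound from 1% stock in acetone/methanol/water 5:3:2. Vessels inoculated with standardized broth-grown cells were incubated, then scored for growth. MIC is the lowest concentration giving complete growth inhibition.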

The test system of the next experiment is Staphylococcus aureus. Format: cell-based, Staphylococcus aureus (ATCC 6538). Particulars: Table 2, Saur. In short, it runs like this:
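Broth two-fold serial dilution from 500 ppm down to 0.25 ppm, compound delivered from acetone/methanol/water stock, inoculated with standardized cell suspension and incubated at an organism-appropriate temperature. MIC is the lowest concentration giving complete growth inhibition.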

The next experiment deals with Aspergillus niger. Format: cell-based, Aspergillus niger (ATCC 6275). The note with it: Table 2, Anig, TSB media. In short, it runs like this:
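Two-fold broth serial dilution from 500 ppm down to 0.25 ppm, compound stock in acetone/methanol/water 5:3:2. Vessels inoculated with standardized spore suspension harvested from agar slants, incubated at a species-appropriate temperature, then scored for growth/no growth. MIC is the lowest concentration giving complete growth inhibition.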

A further experiment deals with Escherichia coli. Format: cell-based, Escherichia coli (ATCC 11229). The note with it: Table 2, Ecol. In short, it runs like this:
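Broth two-fold serial dilutions ran from 500 down to 0.25 ppm, prepared from a stock in acetone/methanol/water (5:3:2). Each tube received a standardized bacterial suspension and was incubated at a temperature suited to the species. MIC is the lowest concentration giving complete growth inhibition.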

[1] abbreviates: Pseudomonas aeruginosa, M9G media, read-out: MIC.
The mark [2] stands for this setting: Pseudomonas aeruginosa, TSB media, read-out: MIC.
[3] abbreviates: Staphylococcus aureus, M9G media, read-out: MIC.
Setting [4] is: Staphylococcus aureus, TSB media, read-out: MIC.
Where [5] appears, read: Escherichia coli, M9G media, read-out: MIC.
Setting [6] is: Aspergillus niger, read-out: MIC.
Setting [7] is: Escherichia coli, TSB media, read-out: MIC.

Where two headings read alike, the source gives them in different places.

In the case of `CCCCCCCCCCCCCCCC[N+]1(CC#CI)CCOCC1` [Compound 40, 1-hexadecyl-1-(3-iodopropargyt)-morpholinium methanesulfonate], the MIC in the experiment on Pseudomonas aeruginosa (setting [1]) was 4 µg/mL; in the experiment on Pseudomonas aeruginosa (setting [2]), 4 µg/mL; in the experiment with Staphylococcus aureus (setting [3]), below 0.25 µg/mL; with Staphylococcus aureus (setting [4]), 0.5 µg/mL; against Aspergillus niger, below 0.25 ppm; in the experiment with Escherichia coli (setting [5]) it was 0.5 µg/mL. In the experiment on Escherichia coli (TSB media), this compound yielded an MIC below 0.25 ppm.
On to `CCCCCCCCCCCC[N+]1(CC#CI)CCOCC1` [Compound 90, 4-dodecyl-4-(3-iodopropargyl)-morpholinium methanesulfonate], for which the MIC in the experiment on Pseudomonas aeruginosa (setting [1]) stood at 16 µg/mL; with Pseudomonas aeruginosa (setting [2]), 125 µg/mL; in the experiment with Staphylococcus aureus (setting [3]), 2 µg/mL; in the experiment with Staphylococcus aureus (setting [4]), 4 µg/mL; in the experiment with Aspergillus niger (setting [6]), 16 µg/mL; in the experiment with Escherichia coli (setting [5]), 2 µg/mL. For the same compound, the MIC in the experiment with Escherichia coli (setting [7]) worked out at 4 µg/mL.
Turning to `OCC[N+]1(CC#CI)CCCC1` [Compound 1, 1-(2-hydroxyethyl)-1-(3-iodopropargyl)-pyrrolidinium 4-methylbenzenesulfonate], the MIC is above 250 µg/mL in the experiment on Pseudomonas aeruginosa (setting [1]); 125 µg/mL in the experiment with Pseudomonas aeruginosa (setting [2]); 16 µg/mL with Staphylococcus aureus (setting [3]); 32 µg/mL in the experiment with Staphylococcus aureus (setting [4]); above 250 µg/mL in the experiment on Aspergillus niger (setting [6]); above 250 µg/mL in the experiment with Escherichia coli (setting [7]).
Take `CCCCCCCCCCCCCCCC[N+]1(CC#CI)CCCCC1` [Compound 26, 1-(hexadecyl)-1-(3-iodopropargyl)-piperidinium 4-methylbenzenesulfonate]: the MIC in the experiment on Pseudomonas aeruginosa (M9G media) was found to be 4 ppm; with Pseudomonas aeruginosa (TSB media), 16 ppm; against Staphylococcus aureus (M9G media) it was 0.25 ppm; with Staphylococcus aureus (TSB media), 0.25 ppm; in the experiment with Aspergillus niger (setting [6]) it was 16 µg/mL; against Escherichia coli (M9G media), 4 ppm. Moreover, the MIC in the experiment with Escherichia coli (TSB media) is recorded as 4 ppm.
With `CCCCCCCCCCCCCC[N+]1(CC#CI)CCCCC1` [Compound 59, 1-tetradecyl-1-(3-iodopropargyl)-piperidinium benzenesulfonate], the MIC with Pseudomonas aeruginosa (M9G media) is 32 ppm; against Pseudomonas aeruginosa (TSB media) it was 125 ppm; against Staphylococcus aureus (M9G media) it was 4 ppm; with Staphylococcus aureus (TSB media) it was 4 ppm; with Aspergillus niger, 8 ppm; against Escherichia coli (M9G media), 8 ppm. For the same compound, the MIC with Escherichia coli (TSB media) was 16 ppm.
Regarding `CCCCCCCCCCOC(=O)C[N+]1(CC#CI)CCOCC1` [Compound 66, 4-(decyioxycarbonyl)methyl-4-(3-iodopropargyl)-morpholiniurn 4methylbenzenesulfonate], the MIC in the experiment on Pseudomonas aeruginosa (setting [1]) was found to be 64 µg/mL; in the experiment on Pseudomonas aeruginosa (setting [2]) it was 250 µg/mL; with Staphylococcus aureus (setting [3]), 0.5 µg/mL; with Staphylococcus aureus (setting [4]), 8 µg/mL; in the experiment on Aspergillus niger (setting [6]), 125 µg/mL; with Escherichia coli (setting [5]), 2 µg/mL. In the experiment on Escherichia coli (setting [7]), the MIC came out at 8 µg/mL.
As to `CCCCCCCCCCCCCC[N+]1(CC#CI)CCCCC1C` (stereo not shown) [Compound 54, 1-(tetradecyl)-1-(3-iodopropargyl)-2-methylpiperidinium 4methylbenzenesulfonate], the MIC against Pseudomonas aeruginosa (M9G media) was 250 ppm; against Pseudomonas aeruginosa (TSB media), 125 ppm; in the experiment on Staphylococcus aureus (M9G media), 1 ppm; in the experiment on Staphylococcus aureus (TSB media), 8 ppm; with Aspergillus niger, 1 ppm; in the experiment with Escherichia coli (M9G media) it was 8 ppm. The compound also returned an MIC against Escherichia coli (TSB media) of 16 ppm.
Turning to `CCCCCCCCCCCCOC(=O)C[N+]1(CC#CI)CCOCC1` [Compound 76, 4-(dodecyloxycarbonyl)methyl-4-(3-iodopropargyl)-morpholinium methanesulfonate], the MIC against Pseudomonas aeruginosa (M9G media) is 64 ppm; against Pseudomonas aeruginosa (TSB media), 125 ppm; in the experiment with Staphylococcus aureus (M9G media) it was 0.25 ppm; in the experiment on Staphylococcus aureus (TSB media) it was 2 ppm; against Aspergillus niger, 32 ppm; in the experiment with Escherichia coli (M9G media), 2 ppm. The compound also had an MIC against Escherichia coli (TSB media) of 8 ppm.
Consider `CCCCCCCCCCCCCC[N+]1(CC#CI)CCSCC1` [Compound 57, 4-(tetradecyl)-4-(3-iodopropargyl)-thiomorpholinium benzenesulfonate], for which the MIC is 0.5 µg/mL in the experiment with Pseudomonas aeruginosa (setting [1]); 4 µg/mL in the experiment on Pseudomonas aeruginosa (setting [2]); below 0.25 µg/mL in the experiment on Staphylococcus aureus (setting [3]); below 0.25 µg/mL in the experiment on Staphylococcus aureus (setting [4]); 0.5 µg/mL with Aspergillus niger (setting [6]); below 0.25 µg/mL with Escherichia coli (setting [5]). Besides, the MIC with Escherichia coli (setting [7]) turned out to be 0.5 µg/mL.
As for `CCCCCCCCCCCCCC[N+]1(CC#CI)CCCCC1` [Compound 62, 1-tetradecyl-1-(3-iodopropargyl)-piperidinium methanesulfonate], the MIC against Pseudomonas aeruginosa (M9G media) is 16 ppm; with Pseudomonas aeruginosa (TSB media) it was 63 ppm; against Staphylococcus aureus (M9G media), 0.25 ppm; in the experiment on Staphylococcus aureus (TSB media) it was 0.25 ppm; against Aspergillus niger, 0.25 ppm; against Escherichia coli (M9G media), 2 ppm. Moreover, the MIC against Escherichia coli (TSB media) turned out to be 4 ppm.
Take `CCCCCCCCCCCCCCCC[N+]1(CC#CI)CCCC1` [Compound 7, 1-hexadecyl-1-(3-iodopropargyl)-pyrrolidinium 4-methylbenzenesulfonate]: the MIC in the experiment on Pseudomonas aeruginosa (M9G media) was 4 ppm; in the experiment with Pseudomonas aeruginosa (TSB media) it was 8 ppm; with Staphylococcus aureus (setting [3]), below 0.25 µg/mL; in the experiment on Staphylococcus aureus (setting [4]), below 0.25 µg/mL; against Aspergillus niger, 1 ppm; in the experiment with Escherichia coli (setting [5]) it was 4 µg/mL. This compound had an MIC against Escherichia coli (TSB media) of 2 ppm.
For the compound `IC#CC[N+]1(Cc2ccccc2)CCOCC1` [Compound 74, 4-benzyl-4-(3-iodopropargyl)-morpholinium methanesulfonate], the MIC against Pseudomonas aeruginosa (M9G media) is above 500 ppm; against Pseudomonas aeruginosa (TSB media), above 500 ppm; in the experiment on Staphylococcus aureus (M9G media), 125 ppm; in the experiment with Staphylococcus aureus (TSB media), 250 ppm; in the experiment on Aspergillus niger it was 64 ppm; with Escherichia coli (M9G media) it was 64 ppm. For the same compound, in the experiment with Escherichia coli (TSB media), the MIC is 125 ppm.
As to `CCCCCCCCCCCCCCCC[N+]1(CC#CI)CCCC1` [Compound 80, 1-hexadecyl-1-(3-iodopropargyl)-pyrrolidinium bromide], the MIC came out at 16 ppm against Pseudomonas aeruginosa (M9G media); 125 ppm against Pseudomonas aeruginosa (TSB media); 0.5 ppm against Staphylococcus aureus (M9G media); 0.5 ppm in the experiment with Staphylococcus aureus (TSB media); 1 ppm against Aspergillus niger; 2 ppm in the experiment with Escherichia coli (M9G media). The MIC with Escherichia coli (TSB media) is on record as 8 ppm.
As to `CCCCCCCCCCCCCCCC[N+]1(CC#CI)CCCC1` [Compound 35, 1-hexadecyl-1-(3-iodopropargyl)-pyrrolidinium methanesulfonate], the MIC against Pseudomonas aeruginosa (M9G media) is above 500 ppm; with Pseudomonas aeruginosa (TSB media) it was above 500 ppm; against Staphylococcus aureus (M9G media), 0.5 ppm; against Staphylococcus aureus (TSB media) it was 0.25 ppm; against Aspergillus niger, 4 ppm; in the experiment with Escherichia coli (M9G media) it was 4 ppm. For the same compound, in the experiment with Escherichia coli (TSB media), the MIC worked out at 63 ppm.
As for `CCCCCCCCCCCCCCC[N+]1(CC#CI)CCCC1` [Compound 33, 1-pentadecyl-1-(3-iodopropargyl)-pyrrolidinium benzenesulfonate], the MIC is 8 ppm in the experiment on Pseudomonas aeruginosa (M9G media); 32 ppm in the experiment on Pseudomonas aeruginosa (TSB media); below 0.25 ppm against Staphylococcus aureus (M9G media); below 0.25 ppm against Staphylococcus aureus (TSB media); below 0.25 ppm in the experiment with Aspergillus niger; 1 ppm with Escherichia coli (M9G media). This compound also gave an MIC in the experiment with Escherichia coli (TSB media) of 2 ppm.
As for `CCCCCCCCCCCCCCCCCC[N+]1(CC#CI)CCCC1` [Compound 16, t-octadecyl-1-(3-iodopropargyl)-pyrrolidinium 4-methylbenzenesulfonate], the MIC in the experiment with Pseudomonas aeruginosa (setting [1]) stood at 500 µg/mL; in the experiment on Pseudomonas aeruginosa (setting [2]), 500 µg/mL; in the experiment on Staphylococcus aureus (setting [3]), 1 µg/mL; in the experiment with Staphylococcus aureus (setting [4]), 1 µg/mL; with Aspergillus niger (setting [6]), 32 µg/mL; in the experiment on Escherichia coli (setting [5]), 16 µg/mL. Also, the MIC in the experiment with Escherichia coli (setting [7]) came to 63 µg/mL.
Take `CCCCCCCC[N+]1(CC#CI)CCOCC1` [Compound 92, 4-n-octyl-4-(3-iodopropargyl)-morpholinium methanesulfonate]: the MIC is above 500 µg/mL in the experiment on Pseudomonas aeruginosa (setting [1]); above 500 µg/mL in the experiment with Pseudomonas aeruginosa (setting [2]); 8 µg/mL in the experiment with Staphylococcus aureus (setting [3]); 16 µg/mL with Staphylococcus aureus (setting [4]); 125 µg/mL in the experiment with Aspergillus niger (setting [6]); 32 µg/mL in the experiment on Escherichia coli (setting [5]). In addition, the MIC in the experiment on Escherichia coli (setting [7]) turned out to be 64 µg/mL.
